Experimental data published in ChEMBL document CHEMBL4477199, “Design and synthesis of novel bicalutamide and enzalutamide derivatives as antiproliferative agents for the treatment of prostate cancer” (Eur J Med Chem, 2016).

How the values were obtained:
HepG2 [1] = assay: Cytotoxicity against human HepG2 cells assessed as reduction in cell viability at 100 uM after 72 hrs by MTT assay relative to control; type: functional
CWR22R [2] = assay: Antiproliferative activity against human 22Rv1 cells assessed as relative inhibition after 96 hrs by propidium iodide staining based fluorescence 2D monolayer assay; type: functional, cell-based; details: 22Rv1, 96 h
CWR22R [3] = assay: Antiproliferative activity against human 22Rv1 cells after 96 hrs by propidium iodide staining based fluorescence 2D monolayer assay; type: functional, cell-based; details: 22Rv1, 96 h
VCaP [4] = assay: Antiproliferative activity against human VCaP cells after 96 hrs by propidium iodide staining based fluorescence 2D monolayer assay; type: functional, cell-based
in vitro = details: human
LNCaP [5] = assay: Antiproliferative activity against human LNCAP cells after 96 hrs by propidium iodide staining based fluorescence 2D monolayer assay; type: functional, cell-based
DU-145 [6] = assay: Antiproliferative activity against human DU145 cells after 96 hrs by propidium iodide staining based fluorescence 2D monolayer assay; type: functional, cell-based; details: DU-145, 96 h
LNCaP [7] = assay: Antiproliferative activity against human LNCAP cells assessed as relative inhibition after 96 hrs by propidium iodide staining based fluorescence 2D monolayer assay; type: functional, cell-based
VCaP [8] = assay: Antiproliferative activity against human VCaP cells assessed as relative inhibition after 96 hrs by propidium iodide staining based fluorescence 2D monolayer assay; type: functional, cell-based
DU-145 [9] = assay: Antiproliferative activity against human DU145 cells assessed as relative inhibition after 96 hrs by propidium iodide staining based fluorescence 2D monolayer assay; type: functional, cell-based; details: DU-145, 96 h
LNCaP [10] = assay: Potency index, ratio of bicalutamide IC50 to compound IC50 for human LNCAP cells; type: functional
VCaP [11] = assay: Potency index, ratio of bicalutamide IC50 to compound IC50 for human VCaP cells; type: functional
DU-145 [12] = assay: Potency index, ratio of bicalutamide IC50 to compound IC50 for human DU145 cells; type: functional
[13] = 33000 µM
Description: Solubility in 100% DMSO at 33 mM at -20 degC

CWR22R [14] = assay: Potency index, ratio of bicalutamide IC50 to compound IC50 for human 22Rv1 cells; type: functional
Androgen receptor = target: T1, Androgen receptor (Rattus norvegicus, UniProt P15207); assay: (§1) Antagonist activity at rat androgen receptor fused with DNA-binding domain of GAL4 expressed in AR-UAS-bla GripTite 293 cells assessed as inhibition of R1881-induced receptor activation preincubated for 30 mins followed by R1881 addition measured after 16 to 24 hrs by betalactamase reporter gene assay; type: cell-based
T1 sequence (P15207 whole entry): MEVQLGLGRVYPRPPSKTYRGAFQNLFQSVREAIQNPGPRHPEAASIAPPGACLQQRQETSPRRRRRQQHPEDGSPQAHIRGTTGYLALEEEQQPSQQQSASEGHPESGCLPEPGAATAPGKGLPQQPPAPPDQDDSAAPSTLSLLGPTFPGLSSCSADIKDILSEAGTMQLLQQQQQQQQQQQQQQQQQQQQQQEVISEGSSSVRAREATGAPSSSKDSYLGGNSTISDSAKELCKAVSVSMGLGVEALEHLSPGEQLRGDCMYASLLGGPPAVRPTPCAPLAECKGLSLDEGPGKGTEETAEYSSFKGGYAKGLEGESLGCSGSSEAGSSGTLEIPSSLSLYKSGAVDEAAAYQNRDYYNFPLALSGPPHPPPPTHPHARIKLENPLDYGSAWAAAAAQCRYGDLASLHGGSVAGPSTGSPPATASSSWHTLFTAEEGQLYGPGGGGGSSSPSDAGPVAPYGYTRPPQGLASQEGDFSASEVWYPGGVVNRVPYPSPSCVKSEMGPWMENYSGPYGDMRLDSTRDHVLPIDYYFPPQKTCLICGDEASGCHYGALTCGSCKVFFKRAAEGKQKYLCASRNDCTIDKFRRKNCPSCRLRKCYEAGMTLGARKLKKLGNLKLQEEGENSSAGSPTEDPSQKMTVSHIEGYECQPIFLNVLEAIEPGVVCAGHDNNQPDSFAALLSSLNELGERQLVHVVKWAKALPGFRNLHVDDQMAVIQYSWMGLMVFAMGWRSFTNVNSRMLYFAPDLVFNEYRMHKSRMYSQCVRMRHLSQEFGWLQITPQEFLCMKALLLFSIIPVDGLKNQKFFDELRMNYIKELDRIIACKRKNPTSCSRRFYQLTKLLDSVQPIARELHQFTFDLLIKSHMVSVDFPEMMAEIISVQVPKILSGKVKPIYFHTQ

[15] = target: T2, Androgen receptor (Rattus norvegicus) (UniProt P15207); assay: as §1; type: cell-based
T2 sequence (whole entry): T1 sequence (P15207 whole entry)

[16] = 96 h
Description: Solubility in RPMI1640 culture medium at <30 uM incubated for 4 days by microscopic analysis

[17] = Efflux ratio of apparent permeability from basolateral to apical side over apical to basolateral side in human Caco2 cells at 10 uM incubated for 120 mins by LC-MS/MS analysis; details: Caco-2
[18] = Half life in human liver microsomes at 3 uM preincubated with compound followed by NADPH addition by LC-MS/MS analysis
[19] = Apparent permeability from apical to basolateral side in human Caco2 cells at 10 uM incubated for 120 mins by LC-MS/MS analysis; details: Caco-2
[20] = Apparent permeability from basolateral to apical side in human Caco2 cells at 10 uM incubated for 120 mins by LC-MS/MS analysis; details: Caco-2
HepG2 [21] = assay: Cytotoxicity against human HepG2 cells assessed as reduction in cell viability after 72 hrs by MTT assay; type: functional, cell-based; details: HepG2, 72 h; for minimal effective concentration: read-out: MEC
[22] = target: T2, Androgen receptor (Rattus norvegicus); assay: as §1, with “activation at 1 uM” for “activation”, “assay relative to control” for “assay”; type: cell-based
[23] = Metabolic stability in human liver microsomes at 3 uM preincubated with compound followed by NADPH addition measured after 5 to 45 mins by LC-MS/MS analysis; type: ADME, Microsome
VCaP [24] = assay: Potency index, ratio of (R)-bicalutamide IC50 to compound IC50 for human VCaP cells; type: functional
CWR22R [25] = assay: Potency index, ratio of (R)-bicalutamide IC50 to compound IC50 for human 22Rv1 cells; type: functional
LNCaP [26] = assay: Potency index, ratio of (R)-bicalutamide IC50 to compound IC50 for human LNCAP cells; type: functional
DU-145 [27] = assay: Potency index, ratio of (R)-bicalutamide IC50 to compound IC50 for human DU145 cells; type: functional

Structure (SMILES)	IC50 (CWR22R [3]) [µM]	IC50 (VCaP [4]) [µM]	IC50 (LNCaP [5]) [µM]	IC50 (DU-145 [6]) [µM]	solubility [13]	IC50 (Androgen receptor) [µM]	inhibition [15]	solubility [16]	efflux ratio at 2 h, 10 µM [17]	Papp A→B at 2 h, 10 µM [19] [×10⁻⁶ cm/s]	Papp B→A at 2 h, 10 µM [20] [×10⁻⁶ cm/s]	AC50 (HepG2 [21]) [µM]	minimal effective concentration (HepG2 [21]) [µM]	further results
C[C@](O)(CS(=O)(=O)c1ccc(F)cc1)C(=O)Nc1ccc(C#N)c(C(F)(F)F)c1 [(R)-BICALUTAMIDE]	46.2 to 46.3	51.6	45.2	45.4	–	–	–	–	–	–	–	–	–	cell viability reduction (HepG2 [1]): 77%; IC50 (CWR22R [2]): 44.6 µM; IC70 (CWR22R [2]): 57.1 µM; IC70 (CWR22R [3]): 58.7 µM; IC70 (VCaP [4]): 83.4 µM; microsomal CLint at 3 µM (in vitro; liver microsomes): 6.48 µL/min/mg; IC70 (LNCaP [5]): 57.7 µM; IC70 (DU-145 [6]): 56.6 µM; IC50 (LNCaP [7]): 47 µM; IC70 (LNCaP [7]): 59.3 µM; IC50 (VCaP [8]): 39.8 µM; IC70 (VCaP [8]): 52.1 µM; IC50 (DU-145 [9]): 41.2 µM; IC70 (DU-145 [9]): 52.6 µM
CC(O)(CS(=O)(=O)c1cccc(C(F)(F)F)c1)C(=O)Nc1ccc([N+](=O)[O-])c(C(F)(F)F)c1 (stereo not drawn)	16.1	30.8	16.2	31.6	Soluble	1.07	Dose-dependent effect	Soluble	–	–	–	–	–	Ratio IC50 (LNCaP [10]): <=2; Ratio IC50 (VCaP [11]): <=2; Ratio IC50 (DU-145 [12]): <=2; Ratio IC50 (CWR22R [14]): <=2
CC(O)(CSc1cccc(C(F)(F)F)c1)C(=O)Nc1ccc([N+](=O)[O-])c(C(F)(F)F)c1 (stereo not drawn)	5.07	8.64	6.44	8.73	Soluble	0.625	Dose-dependent effect	Soluble	0.853	5	4.27	26.1	13.2	microsomal CLint at 3 µM (in vitro; liver microsomes): 202 µL/min/mg; half-life at 3 µM ([18]; liver microsomes): 6.87 min
C[C@](O)(CS(=O)(=O)c1ccc(OC(F)(F)F)cc1)C(=O)Nc1ccc(C#N)c(C(F)(F)F)c1	18.8	31.2	18.9	31.6	Soluble	0.777	Dose-dependent effect	Soluble	–	–	–	–	–	inhibition [22]: 53 to 69%
C[C@](O)(CSc1ccc(C(F)(F)F)cc1)C(=O)Nc1ccc(C#N)c(C(F)(F)F)c1	9.75	9.28	14.5	17.2	Soluble	2.17	Dose-dependent effect	Soluble	0.817	5.8	4.74	61.2	49.6	microsomal CLint at 3 µM (in vitro; liver microsomes): 248 µL/min/mg; half-life at 3 µM ([18]; liver microsomes): 5.6 min
CC(O)(CS(=O)(=O)c1ccc(C(F)(F)F)cc1)C(=O)Nc1ccc(C#N)c(C(F)(F)F)c1 (stereo not drawn)	21.5	29.1	20.1	32.8	Soluble	–	–	Soluble	–	–	–	–	–	Ratio IC50 (LNCaP [10]): 2; Ratio IC50 (VCaP [11]): 2; Ratio IC50 (DU-145 [12]): 2; Ratio IC50 (CWR22R [14]): 2
CC(O)(COc1ccc(C#N)cc1C(F)(F)F)C(=O)Nc1ccc([N+](=O)[O-])c(C(F)(F)F)c1 (stereo not drawn)	5.55	8.38	5.69	7.65	–	0.0722	Dose-dependent effect	–	–	–	–	20.2	10.6	cell viability reduction (HepG2 [1]): 98%; microsomal CLint at 3 µM (in vitro; liver microsomes): 2.59 µL/min/mg; half-life at 3 µM ([18]; liver microsomes): 534 min
CC(O)(CSc1ccccc1C(F)(F)F)C(=O)Nc1ccc([N+](=O)[O-])c(C(F)(F)F)c1 (stereo not drawn)	4.6	4.45	4.78	7.57	Soluble	0.28	Dose-dependent effect	Soluble	0.843	3.44	2.9	2.73	1.71	cell viability reduction (HepG2 [1]): 98%; microsomal CLint at 3 µM (in vitro; microsomes): 409 µL/min/mg; half-life at 3 µM ([18]; microsomes): 3.39 min
CC(O)(COc1ccc(C#N)c(F)c1)C(=O)Nc1ccc([N+](=O)[O-])c(C(F)(F)F)c1 (stereo not drawn)	11.8	12.4	7.71	16.4	Soluble	0.0492	Dose-dependent effect	Soluble	–	–	–	–	–	inhibition [22]: 65%
CC(O)(CS(=O)(=O)c1ccccc1C(F)(F)F)C(=O)Nc1ccc([N+](=O)[O-])c(C(F)(F)F)c1 (stereo not drawn)	18.6	27.6	25.7	37.5	Soluble	0.811	Dose-dependent effect	Soluble	1.29	13.3	17.2	32.6	22.7	Stability [23]: Stable
CC(O)(COc1ccc(C(F)(F)F)cc1)C(=O)Nc1ccc(C#N)c(C(F)(F)F)c1 (stereo not drawn)	6.91	9.65	6.45	16.3	Soluble	–	–	Soluble	0.943	5.09	4.8	23.9	11.3	Stability [23]: Stable
C[C@](O)(CS(=O)(=O)c1ccc(C(F)(F)F)cc1)C(=O)Nc1ccc(C#N)c(C(F)(F)F)c1	20.2	31.4	17.5	26.8	Soluble	0.775	Dose-dependent effect	Soluble	–	–	–	–	–	Ratio IC50 (LNCaP [10]): <=2; Ratio IC50 (VCaP [11]): <=2; Ratio IC50 (VCaP [24]): 2; Ratio IC50 (DU-145 [12]): <=2; Ratio IC50 (CWR22R [25]): 2; Ratio IC50 (CWR22R [14]): <=2; Ratio IC50 (LNCaP [26]): 2; Ratio IC50 (DU-145 [27]): 2
C[C@](O)(COc1ccc(C#N)cc1)C(=O)Nc1ccc(C#N)c(C(F)(F)F)c1 [ENOBOSARM]	24.8	24.5	–	44.6	–	0.0364	–	–	0.848	31.5	26.7	32.8	21.8	cell viability reduction (HepG2 [1]): 79%; Stability [23]: Stable
CC(O)(CS(=O)(=O)c1ccc(C(F)(F)F)cc1)C(=O)Nc1ccc([N+](=O)[O-])c(C(F)(F)F)c1 (stereo not drawn)	18.7	31.5	17.9	24.7	Soluble	–	–	Soluble	–	–	–	–	–	Ratio IC50 (LNCaP [10]): <=2; Ratio IC50 (VCaP [11]): <=2; Ratio IC50 (DU-145 [12]): <=2; Ratio IC50 (CWR22R [14]): <=2
